Ki and Kd data for 40 compounds are collected here from patent US7875645B2, “Method for the treatment of CNS disorders with substituted 2-imidazoles or imidazole derivatives” (Hoffman-La Roche Inc., priority 2006, dated 2011).

Where a name gives a salt, the structure may show the parent alone.

One assay deals with T1, TAAR1 (Mus musculus, UniProt Q923Y8).
T1 construct: expressed in transfected cells; host or cells: HEK293 (ATCC # CRL-1573), stably transfected with pIRESneo2 expression plasmid; membranes prepared
T1 sequence (Q923Y8 whole entry): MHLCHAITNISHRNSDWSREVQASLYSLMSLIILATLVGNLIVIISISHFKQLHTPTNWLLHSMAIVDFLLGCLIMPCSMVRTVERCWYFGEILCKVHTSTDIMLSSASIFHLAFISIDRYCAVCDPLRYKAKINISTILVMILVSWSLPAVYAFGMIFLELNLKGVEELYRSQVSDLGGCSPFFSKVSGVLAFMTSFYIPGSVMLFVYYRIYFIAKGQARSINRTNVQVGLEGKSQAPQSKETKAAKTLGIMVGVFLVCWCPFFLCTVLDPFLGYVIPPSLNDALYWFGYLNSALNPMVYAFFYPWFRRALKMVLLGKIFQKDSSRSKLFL
The assay can be described thus: Radioligand binding assay on membranes of HEK293 cells stably expressing TAAR1. Conditions: mouse TAAR1; radioligand [3H]-rac-2-(1,2,3,4-tetrahydro-1-naphthyl)-2-imidazoline at 60 nM; 4° C., 30 min. Here is the method: For the construction of expression plasmids the coding sequences of human, rat and mouse TAAR 1 were amplified from genomic DNA essentially as described by Lindemann et al.. The Expand High Fidelity PCR System (Roche Diagnostics) was used with 1.5 mM Mg^2+ and purified PCR products were cloned into pCR2.1-TOPO cloning vector (Invitrogen) following the instructions of the manufacturer. PCR products were subcloned into the pIRESneo2 vector (BD Clontech, Palo Alto, Calif.), and expression vectors were sequence verified before introduction in cell lines.
For the generation of stably transfected cell lines HEK293 cells were transfected with the pIRESneo2 expression plasmids containing the TAAR coding sequences (described above) with Lipofectamine 2000 (Invitrogen) according to the instructions of the manufacturer, and 24 hrs post transfection the culture medium was supplemented with 1 mg/ml G418 (Sigma, Buchs, Switzerland). After a culture period of about 10 d clones were isolated, expanded and tested for responsiveness to trace amines (all compounds purchased from Sigma) with the cAMP Biotrak Enzyme immunoassay (EIA) System (Amersham) following the non-acetylation EIA procedure provided by the manufacturer.
Cells at confluence were rinsed with ice-cold phosphate buffered saline without Ca^2+ and Mg^2+ containing 10 mM EDTA and pelleted by centrifugation at 1000 rpm for 5 min at 4° C. The pellet was then washed twice with ice-cold phosphate buffered saline and cell pellet was frozen immediately by immersion in liquid nitrogen and stored until use at −80° C. Cell pellet was then suspended in 20 ml HEPES-NaOH (20 mM), pH 7.4 containing 10 mM EDTA, and homogenized with a Polytron (PT 3000, Kinematica) at 10,000 rpm for 10 s. The homogenate was centrifuged at 48,000×g for 30 min at 4° C. and the pellet resuspended in 20 ml HEPES-NaOH (20 mM), pH 7.4 containing 0.1 mM EDTA (buffer A), and homogenized with a Polytron at 10,000 rpm for 10 s. The homogenate was then centrifuged at 48,000×g for 30 min at 4° C. and the pellet resuspended in 20 ml buffer A, and homogenized with a Polytron at 10,000 rpm for 10 s. Protein concentration was determined by the method of Pierce (Rockford, Ill.). The homogenate was then centrifuged at 48,000×g for 10 min at 4° C., resuspended in HEPES-NaOH (20 mM), pH 7.0 including MgCl2 (10 mM) and […] homogenized with a Polytron at 10,000 rpm for 10 s.
Binding assay was performed at 4° C. in a final volume of 1 ml, and with an incubation time of 30 min. […] Non-specific binding was defined as the amount of [^3H]-rac-2-(1,2,3,4-tetrahydro-1-naphthyl)-2-imidazoline bound in the presence of the appropriate unlabelled ligand (10 μM). Competing ligands were tested in a wide range of concentrations (10 pM-30 μM). […] Each experiment was performed in duplicate. Al incubations were terminated by rapid filtration through UniFilter-96 plates (Packard Instrument Company) and glass filter GF/C, pre-soaked for at least 2 h in polyethylenimine 0.3%, and using a Filtermate 96 Cell Harvester (Packard Instrument Company). The tubes and filters were then washed 3 times with 1 ml aliquots of cold buffer B. Filters were not dried and soaked in Ultima gold (45 μl/well, Packard Instrument Company) and bound radioactivity was counted by a TopCount Microplate Scintillation Counter (Packard Instrument Company).
What is called Ki is the equilibrium dissociation constant of an inhibitor or competing ligand from its target. Lower therefore signals higher affinity. “4-Tritio-2-naphthalen-1-ylmethyl-4,5-dihydro-1H-imidazole [Example 113]” yielded a Ki of 0.007 µM. In turn, `Cc1cccc(C(C)C2=NCCN2)c1C` (racemic) [Example 18, rac-2-[1-(2,3-Dimethyl-phenyl)-ethyl]-4,5-dihydro-1H-imidazole hydrochloride] yielded an inhibition constant (Ki) of 0.027 µM. On the same count and under the same terms, as for `CC(C1=NCCN1)c1ccc(Cc2ccccc2)cc1` (racemic) [Example 158, rac-2-[1-(4-Benzyl-phenyl)-ethyl]-4,5-dihydro-1H-imidazole hydrochloride], the figure is 0.021 µM; as for `CCc1cccc(OC)c1CC1=NCCN1` [Example 9, 2-(2-Ethyl-6-methoxy-benzyl)-4,5-dihydro-1H-imidazole], 0.01 µM.

In turn, `COc1cccc(C)c1CC1=NCCN1` [Example 10, 2-(2-Methoxy-6-methyl-benzyl)-4,5-dihydro-1H-imidazole] showed an inhibition constant Ki of 0.023 µM. The same measure, in the same setting: as for `CCc1cccc(C)c1CC1=NCCN1` [Example 11, 2-(2-Ethyl-6-methyl-benzyl)-4,5-dihydro-1H-imidazole], the figure is 0.007 µM; as for `CCc1cccc(C(C)C)c1CC1=NCCN1` [Example 12, 2-(2-Ethyl-6-isopropyl-benzyl)-4,5-dihydro-1H-imidazole], 0.03 µM; as for `Clc1cccc(CC2=NCCN2)c1Cl` [Example 17, 2-(2,3-Dichloro-benzyl)-4,5-dihydro-1H-imidazole], 0.021 µM.

`CCc1ccc(Br)c(CC)c1CC1=NCCN1` [Example 32, 2-(3-Bromo-2,6-diethyl-benzyl)-4,5-dihydro-1H-imidazole] gave a Ki of 0.005 µM. Turning to `COc1cc(C)c(CC2=NCCN2)cc1C` [Example 33, 2-(4-Methoxy-2,5-dimethyl-benzyl)-4,5-dihydro-1H-imidazole hydrochloride], the affinity corresponds to a Ki of 0.014 µM. Regarding `COc1cc(Br)c(CC2=NCCN2)cc1OC` [Example 34, 2-(2-Bromo-4,5-dimethoxy-benzyl)-4,5-dihydro-1H-imidazole hydrochloride], the affinity corresponds to a Ki of 0.031 µM.

Compound `CCc1ccccc1CC1=NCCN1` [Example 54, 2-(2-Ethyl-benzyl)-4,5-dihydro-1H-imidazole] gave a Ki of 0.016 µM. Still for that read-out and setting: as for `COc1cccc(Cl)c1CC1=NCCN1` [Example 55, 2-(2-Chloro-6-methoxy-benzyl)-4,5-dihydro-1H-imidazole], the figure is 0.017 µM. On to `c1ccc(C2CC2)c(CC2=NCCN2)c1` [Example 56, 2-(2-Cyclopropyl-benzyl)-4,5-dihydro-1H-imidazole], for which the inhibitory constant (Ki) came to 0.025 µM. Consider `Cc1cccc(Br)c1CC1=NCCN1` [Example 57, 2-(2-Bromo-6-methyl-benzyl)-4,5-dihydro-1H-imidazole], for which the affinity corresponds to a Ki of 0.029 µM. On to `COc1cc(Br)c(C)c(CC2=NCCN2)c1` [Example 58, 2-(3-Bromo-5-methoxy-2-methyl-benzyl)-4,5-dihydro-1H-imidazole], for which the affinity, expressed as Ki, was 0.03 µM.

Compound `FC(F)(F)c1cccc(CC2=NCCN2)c1Cl` [Example 59, 2-(2-Chloro-3-trifluoromethyl-benzyl)-4,5-dihydro-1H-imidazole] yielded a Ki of 0.041 µM. Same read-out and setting: as for `CCc1cccc(CC)c1Cc1ncc[nH]1` [Example 70, 2-(2,6-Diethyl-benzyl)-1H-imidazole], the figure is 0.025 µM.

The compound `Cc1cc(C)c(C)c(Cc2ncc[nH]2)c1C` [Example 71, 2-(2,3,5,6-Tetramethyl-benzyl)-1H-imidazole] registered a Ki of 0.01 µM. In the case of `Cc1c(C)c(C)c(Cc2ncc[nH]2)c(C)c1C` [Example 72, 2-Pentamethylphenylmethyl-1H-imidazole], the inhibition constant Ki was found to be 0.017 µM.

`COc1cc(C)c(Cc2ncc[nH]2)c(C)c1` [Example 73, 2-(4-Methoxy-2,6-dimethyl-benzyl)-1H-imidazole] showed a Ki of 0.049 µM. The compound `CCc1ccc(Br)c(CC)c1Cc1ncc[nH]1` [Example 77, 2-(3-Bromo-2,6-diethyl-benzyl)-1H-imidazole] yielded a Ki of 0.026 µM. Compound `Cc1ccc2ccoc2c1CC1=NCCN1` [Example 106, 2-(6-Methyl-benzofuran-7-ylmethyl)-4,5-dihydro-1H-imidazole] gave a Ki of 0.017 µM. The compound `c1cc(CC2=NCCN2)c2occc2c1` [Example 107, 2-Benzofuran-7-ylmethyl-4,5-dihydro-1H-imidazole] showed an inhibition constant Ki of 0.022 µM. On the same count and under the same terms, the value for `Cc1sc(C)c(CC2=NCCN2)c1C` [Example 109, 2-(2,4,5-Trimethyl-thiophen-3-ylmethyl)-4,5-dihydro-1H-imidazole] was 0.004 µM; that for `Cc1sc(C)c(Cc2ncc[nH]2)c1C` [Example 110, 2-(2,4,5-Trimethyl-thiophen-3-ylmethyl)-1H-imidazole] was 0.021 µM.

`[3H]c1ccc(CC)c(Cc2ncc[nH]2)c1CC` [Example 112, 2-(2,6-Diethyl-3-tritio-benzyl)-1H-imidazole] came in with an inhibition constant (Ki) of 0.025 µM. With `Cc1cc(C(C)(C)C)cc(C)c1CC1=NCCN1` [Example 114, 2-(4-tert-Butyl-2,6-dimethyl-benzyl)-4,5-dihydro-1H-imidazole, reference compound], the Ki amounted to 0.006 µM. Still for that read-out and setting: the value for `Cc1c(C)c(C)c(CC2=NCCN2)c(C)c1C` [Example 115, 2-Pentamethylphenylmethyl-4,5-dihydro-1H-imidazole] was 0.007 µM; that for `Cc1cc(C)c(C)c(CC2=NCCN2)c1C` [Example 116, 2-(2,3,5,6-Tetramethyl-benzyl)-4,5-dihydro-1H-imidazole] was 0.008 µM. Still for that read-out and setting: as for `Cc1cc(C(C)(C)C)c(O)c(C)c1CC1=NCCN1` [Example 117, 6-tert-Butyl-3-(4,5-dihydro-1H-imidazol-2-ylmethyl)-2,4-dimethyl-phenol, reference compound], the figure is 0.008 µM; as for `Cc1cc(C)c(CC2=NCCN2)c(C)c1` [Example 118, 2-(2,4,6-Trimethyl-benzyl)-4,5-dihydro-1H-imidazole, reference compound], 0.017 µM. `Clc1ccc(CC2=NCCN2)cc1Cl` [Example 121, 2-(3,4-Dichloro-benzyl)-4,5-dihydro-1H-imidazole]: affinity was put at a Ki of 0.023 µM.

`COc1cccc(CC2=NCCN2)c1OC` [Example 122, 2-(2,3-Dimethoxy-benzyl)-4,5-dihydro-1H-imidazole] returned a Ki of 0.025 µM. The same measure, in the same setting: as for `COc1cc(C)c(CC2=NCCN2)c(C)c1` [Example 123, 2-(4-Methoxy-2,6-dimethyl-benzyl)-4,5-dihydro-1H-imidazole], the figure is 0.028 µM; as for `Brc1ccccc1CC1=NCCN1` [Example 124, 2-(2-Bromo-benzyl)-4,5-dihydro-1H-imidazole], 0.044 µM; as for `Nc1c(Cl)cc(CC2=NCCN2)cc1Cl` [Example 125, 2,6-Dichloro-4-(4,5-dihydro-1H-imidazol-2-ylmethyl)-phenylamine, reference compound], 0.048 µM.

The compound `Cc1cc(C)c(Cc2ncc[nH]2)c(C)c1` [Example 137, 2-(2,4,6-Trimethyl-benzyl)-1H-imidazole] gave an inhibition constant Ki of 0.038 µM. In turn, `c1ccc2c(CC3=NCCN3)cccc2c1` [Example 140, 2-Naphthalen-1-ylmethyl-4,5-dihydro-1H-imidazole, reference compound] had a Ki of 0.007 µM.

The assay is the same for the next values; noted with them: radioligand used in the TAAR1 binding assay; species not given; read-out: calculated Kd value of the radioligand.
In general, Kd refers to the free concentration of one partner at which half of the binding sites on the other are occupied at equilibrium, for simple one-to-one binding. Consider `c1ccc2c(c1)CCCC2C1=NCCN1` (racemic) [[^3H]-rac-2-(1,2,3,4-tetrahydro-1-naphthyl)-2-imidazoline, reference compound], for which the Kd was 60 nM.
